pIC50: −log10 of the molar value.
How the values were obtained:
MCF7 = assay: Antiproliferative activity against human MCF7 cells assessed as reduction in cell viability measured after 72 hrs by SRB assay; assay type: functional, cell-based; settings: MCF7, 72 h
MDA-MB-231 = assay: Antiproliferative activity against human MDA-MB-231 cells assessed as reduction in cell viability measured after 72 hrs by SRB assay; assay type: functional, cell-based; settings: MDA-MB-231, 72 h
A549 = assay: Antiproliferative activity against human A549 cells assessed as reduction in cell viability measured after 72 hrs by SRB assay; settings: A549, 72 h
[1] = test system: Human immunodeficiency virus 1; assay: Antiviral activity against HIV-1 NL4-3 infected in human MT4 cells assessed as reduction in p24 production treated at 48 hrs post-infection and measured on day 4 post-viral infection by ELISA; assay type: functional, organism-based; settings: Human immunodeficiency virus 1, NL4-3, MT4
[2] = Antiproliferative activity against human KB-VIN cells assessed as reduction in cell viability after 72 hrs by SRB assay; assay type: functional, cell-based; settings: KBVIN
KB = assay: Antiproliferative activity against human KB cells assessed as reduction in cell viability measured after 72 hrs by SRB assay; assay type: functional, cell-based
MT4 = assay: Cytotoxicity against human MT4 cells assessed as reduction in cell viability by CellTiter-Glo luminescence assay; assay type: cell-based

pIC50 (MCF7)	pIC50 (MDA-MB-231)	pIC50 (A549)	pIC50 [1]	pIC50 (KB)	SMILES	pIC50 [2]	CC75 (MT4) [µM]
< 5.00	5.00	< 5.00	< 5.00	< 4.40	CC/C=C/C/C=C/C/C=C/C/C=C/C/C=C/CCCC(=O)OCC1=C[C@H]2[C@@H]3C(C)(C)[C@]3(OC(=O)CCC/C=C/C/C=C/C/C=C/C/C=C/C/C=C/CC)[C@H](OC(=O)CCC/C=C/C/C=C/C/C=C/C/C=C/C/C=C/CC)[C@@H](C)[C@]2(O)[C@@H]2C=C(C)C(=O)[C@@]2(O)C1	< 4.40	> 5
7.82	8.10			8.10	CC(=O)O[C@H]1C(=O)[C@@]2(C)[C@H]([C@H](OC(=O)c3ccccc3)[C@]3(O)C[C@H](OC(=O)[C@H](O)[C@@H](NC(=O)c4ccccc4)c4ccccc4)C(C)=C1C3(C)C)[C@]1(OC(C)=O)CO[C@@H]1C[C@@H]2O [PACLITAXEL]	5.60	
< 5.00	< 5.00	< 5.00	6.44	< 5.00	COc1cc(/C=C/C(=O)O[C@@H]2[C@@H](C)[C@@]3(O)[C@@H](C=C(CO)C[C@]4(O)C(=O)C(C)=C[C@@H]34)[C@@H]3C(C)(C)[C@]23OC(C)=O)ccc1O	< 5.00	> 5
< 5.00	5.20	5.49	7.13	< 5.00	CCCC(=O)OCC1=C[C@H]2C3C(C)(C)[C@]3(OC(=O)CCC)[C@H](OC(=O)/C=C/c3ccccc3)[C@@H](C)[C@]2(O)[C@@H]2C=C(C)C(=O)[C@@]2(O)C1 (single isomer, unassigned)	< 5.00	> 5
5.03	5.22	5.43	< 5.00	5.07	CCCC(=O)OCC1=C[C@H]2[C@@H]3C(C)(C)[C@]3(OC(=O)CCC)[C@H](OC(=O)/C=C/c3ccc(OC(C)=O)c(OC)c3)[C@@H](C)[C@]2(O)[C@@H]2C=C(C)C(=O)[C@@]2(O)C1	4.90	
< 5.00	< 5.00	< 5.00	< 5.00	< 5.00	CC1=C[C@H]2[C@@]3(O)[C@H](C)[C@@H](O)[C@]4(OC(=O)/C=C/c5ccccc5)C([C@@H]3C=C(CO)C[C@]2(O)C1=O)C4(C)C (single isomer, unassigned)	< 5.00	> 5
< 5.00	< 5.00	< 5.00	< 5.00	< 5.00	CC1=C[C@H]2[C@@]3(O)[C@H](C)[C@@H](OC(=O)/C=C/c4ccccc4)[C@]4(OC(=O)/C=C/c5ccccc5)[C@H]([C@@H]3C=C(COC(=O)/C=C/c3ccccc3)C[C@]2(O)C1=O)C4(C)C	< 5.00	> 5
			7.77		Cc1cn([C@H]2C[C@H](N=[N+]=[N-])[C@@H](CO)O2)c(=O)[nH]c1=O [ZIDOVUDINE]		> 0.37
					CC(=O)OCC1=C[C@H]2[C@@H]3C(C)(C)[C@]3(OC(C)=O)[C@H](O)[C@@H](C)[C@]2(O)[C@@H]2C=C(C)C(=O)[C@@]2(O)C1		> 5
					CCCC(=O)OCC1=C[C@H]2[C@@H]3C(C)(C)[C@]3(OC(=O)CCC)[C@H](O)[C@@H](C)[C@]2(O)[C@@H]2C=C(C)C(=O)[C@@]2(O)C1		> 5

SMILES	pIC50 (MCF7)	pIC50 (MDA-MB-231)	pIC50 (A549)	pIC50 [1]	pIC50 (KB)	pIC50 [2]	CC75 (MT4) [µM]
CC(=O)O[C@@H]1[C@@H](C)[C@@]2(O)[C@@H](C=C(CO)C[C@]3(O)C(=O)C(C)=C[C@@H]23)[C@@H]2C(C)(C)[C@]12OC(C)=O	< 5.00	5.05	5.13	5.87	< 5.00	< 5.00	> 10
CC(=O)OCC1=C[C@H]2[C@@H]3C(C)(C)[C@]3(OC(C)=O)[C@H](OC(C)=O)[C@@H](C)[C@]2(O)[C@@H]2C=C(C)C(=O)[C@@]2(O)C1	< 5.00	< 5.00	< 5.00	< 5.00	< 5.00	< 5.00	> 5
